Structures are written as SMILES. Read-outs that look alike come from different tables or passages of the source.

Experimental findings from patent US9868707B2, “Small molecule agonists of neurotensin receptor 1” (SANFORD-BURNHAM MEDICAL RESEARCH INSTITUTE, priority 2012, dated 2018) are described below.

A short description of data set [1]: Aqueous solubility, direct UV kinetic solubility method. Type of data set: physicochemical. As for the experimental part:
The aqueous solubility of the compound was determined using a direct UV kinetic solubility method (Avdeef, A. 2001. Physicochemical profiling (solubility, permeability and charge state). Curr Top Med Chem 1:277-351) in a 96-well format at pH 5.0, 6.2 and 7.4. Compounds (250 μM) were incubated for 18.0h at room temperature to achieve equilibrium, and then filtered to remove any precipitate. The concentration of the compound in solution was measured by UV absorbance (250-498 nm) and compared to the spectra of precipitation-free reference solutions. Spectroscopically pure 1-Propanol (Sigma, St Louis, Mo.) was used as a cosolvent to suppress precipitation in the reference solutions. The solubility of each compound was determined using μSOL Evolution Plus software v3.2 (pION Inc) and is expressed as the concentration (μg/mL) of a solute in a saturated solution

A short description of data set [2]: Parallel Artificial Membrane Permeability Assay (PAMPA). Type of data set: in vitro ADME. As for the experimental part: The PAMPA in a 96-well sandwich plate format was used to determine the capacity of compounds to cross a model of cell membrane by passive diffusion (Avdeef, A., Nielsen, P. E., and Tsinman, O. 2004. PAMPA—a drug absorption in vitro model 11. Matching the in vivo unstirred water layer thickness by individual-well stirring in microtitre plates. Eur J Pharm Sci 22:365-374). The effective permeability of the compound was measured at an initial concentration of 50 μM. The permeability measurements were performed using a cosolvent buffer system (20% ACN/aqueous buffer) solution (pION Inc, Woburn Mass.) prepared according to the manufacturer's instructions. The compound was dissolved in buffer solution and ACN (20%, cosolvent) to the desired concentration (50 μM). The PAMPA sandwich plate consisting of a donor bottom plate and an acceptor filter plate was used. The donor wells contained the compounds in 190 μl system solution, and magnetic stir bars. The filter on the bottom of each acceptor well was coated with GIT-0 phospholipid solution (pION Inc) and filled with 200 μl of Acceptor Sink Buffer, pH 7.4 (pION Inc) containing surfactant. The permeation time was 30 min and moderate stirring (equivalent to 40 μm Aqueous Boundary Layer thickness) was applied using the Gut-Box™ (pION, Inc). After the permeation time, the sandwich was disassembled and the amount of compound present in both the donor and acceptor wells was measured by UV absorbance (250-498 nm) and compared to spectra obtained reference standards. Mass balance was used to determine the amount of material embedded in the membrane filter. The effective permeability, Pe, was calculated using the software PAMPA Evolution Plus, version 3.2 (pION Inc).
On the technique in general: PAMPA measures passive passage across an artificial lipid membrane.

Data set [3] can be described thus: Plasma protein binding, Rapid Equilibrium Device, mouse plasma. The settings on record: mouse plasma (EDTA), diluted 1:1 with PBS, read-out: Plasma Protein Binding (% Bound) (converted). It is filed as in vitro ADME. The method, then: The extent of compound bound to plasma proteins was measured using the Rapid Equilibrium Device (Pierce Thermo Scientific, Rockford Ill.). The base plate was rinsed with […] followed by 2× washes with ultrapure water and allowed to dry. Human and mouse plasma (BioChemed Services, Winchester Va.) collected in EDTA was allowed to thaw at room temperature and then warmed to 37° C., and diluted 1:1 (v:v) with 1×PBS, pH 7.4, prior to the assay. The compound (1.0 and 10.0 μM final) was added to the chamber containing 300 μl plasma:PBS. Next, 500 μl of dialysis buffer (1×PBS, pH7.4) was added to the buffer chambers of the inserts. The chambers were covered with sealing tape and incubated at 37° C. on an orbital shaker at 300× rpm for 4 hours. […] Results reported are the mean of each reaction duplicate, normalized to the internal standard, and expressed as a percent compound bound after the incubation time. The amount of compound in the supernatant was determined by LC/MS/MS and the percent of free and bound compounds were calculated with the following formulas: Percent of free parent compound=(amount of compound in receiver chamber/amount of compound in donor chamber)*100.

A short description of data set [4]: Plasma stability, human plasma. It is filed as in vitro ADME. As for the experimental part: Plasma stability was determined using previously published methods (Kerns, E. H., and Di, L. 2008. Drug-like Properties: Concepts, Structure Design and Methods. Oxford UK: Elsevier). Compound (1.0 μM) was incubated at 37° C. in human or mouse plasma (from blood of healthy donors collected on EDTA) diluted to 50% (v/v) with pH 7.4 isotonic phosphate buffer. At time 0 min and 180 min, aliquots were collected, added to acetonitrile to quench the reaction and precipitate plasma proteins. These samples were centrifuged and the supernatant analyzed by the LC/MS/MS method described above for the presence of the parental compound.

A short description of data set [5]: Metabolic stability in mouse hepatic microsomes. Type of data set: in vitro ADME. The method, then: Hepatic metabolic stability was determined using established protocols (Di, L., Kerns, E. H., Hong, Y., Kleintop, T. A., McConnell, O. J., and Huryn, D. M. 2003. Optimization of a higher throughput microsomal stability screening assay for profiling drug discovery candidates. J Biomol Screen 8:453-462). Briefly, the compound (1.0 and 10.0 μM) was preincubated for 10 min at 37° C. in potassium phosphate buffer (pH 7.4) together with 0.5 mg/mL mouse or human hepatic microsomes (Xenotech, Kansas City). The cofactor mixture comprising NADP, G6P, and G6P-DH (BD Biosciences) was added, and aliquots were taken after 0 and 60 min. Samples were analyzed on an Acquity UPLC, coupled with a sample organizer, and interfaced with a triple quadrupole ABI 4000 LC/MS/MS using the methodology described above. The percentage of the compound remaining after a 60 min incubation period was calculated according the following equation: [(area at time 60 min)/(area at time 0 min)]×100%.

For data set [6], the system named is adrenergic receptors (α1a, α1B, α1D, α2A). Put plainly: Panlabs panel, adrenergic receptors. The following applies: @ 10 μM. It is filed as binding. The source says: However, these activities in in vitro binding assays may not translate into functional modulation of these receptors.
The nature of data set [7]: Brain levels in mouse after ip dosing. Type of data set: in vivo.

A word on the solubility: it is the dissolved amount per volume that the medium holds. Take `COc1cc2nc(C3CC3)nc(N3CCN(c4ccccc4OC)CC3)c2cc1OC` [Compound 315, 2-cyclopropyl-6,7-dimethoxy-4-(4-(2-methoxyphenyl)piperazin-1-yl)quinazoline]: the solubility at 18 h is 0.45 µg/mL in data set [1] (1x PBS, pH 7.4, aqueous buffer, kinetic from dmso stock, read-out: Aqueous Solubility in 1x PBS, pH 7.4); 1.2 µM in data set [1] (pH 7.4, molar units, read-out: Aqueous Solubility in pION's buffer); over 297 µM in data set [1] (pION's buffer, aqueous buffer, kinetic from dmso stock, pH 5.0, molar units, read-out: Aqueous Solubility in pION's buffer); over 125 µg/mL in data set [1] (pION's buffer, aqueous buffer, kinetic from dmso stock, pH 5.0, read-out: Aqueous Solubility in pION's buffer); 0.52 µg/mL in data set [1] (pION's buffer, pH 7.4, aqueous buffer, kinetic from dmso stock, read-out: Aqueous Solubility in pION's buffer). Moreover, the “Aqueous Solubility in 1x PBS, pH 7.4” value in data set [1] (1x PBS, pH 7.4, molar units) came to 1.1 μM. Also, the “Aqueous Solubility in pION's buffer” value in data set [1] (pH 6.2) came to 9.0 μg/mL. In addition, the “PAMPA Permeability, Pe” value was determined as 11630 nm/s in data set [2] (Donor pH 5.0, Acceptor pH 7.4); 21450 nm/s in data set [2] (Donor pH 6.2, Acceptor pH 7.4); 20930 nm/s in data set [2] (Donor pH 7.4, Acceptor pH 7.4). Besides, the “permeability in the PAMPA assay” value in data set [2] (with increasing pH of the donor compartment) was “high permeability”. In data set [3] (pH 7.4, 1 μM), the fraction unbound at 4 h, 1 μM was 0.0033. Further, the fraction unbound at 4 h, 10 μM in data set [3] (pH 7.4, 10 μM) was 0.0116. For the same molecule, the “Plasma Stability (% Remaining at 3 hrs)” value in data set [4] (Human) was 100%. For the same molecule, the “plasma stability” value in data set [4] (species not stated) is given as “very high plasma stability”. The “Hepatic Microsome Stability (% Remaining at 1 hr)” value in data set [5] came out at 0.16%. For the same molecule, in data set [5], the “metabolism in vitro with liver homogenates” value was “metabolized rapidly”. The “activity across adrenergic receptors α1a, α1B, α1D, α2A” value in data set [6] was 63-100%. The brain/plasma in data set [7] (1 hr after 10 mg/kg ip dose) turned out to be 1.3; in data set [7] (1 hr after 30 mg/kg ip dose), 1.6.
